Consider 1 compound from PMC5218480 (PLoS ONE, 2017).

SMILES strings stand for the structures.

The subject of the assay is MV-4-11 cells. Put plainly: Gene expression microarray analysis (Affymetrix PrimeView) and GSEA. Further details: RFU PODN (11730768_x_at) / Fold change /veh PODN (11730768_x_at) / RFU LINC00158 (11744669_a_at) / Fold change /veh LINC00158 (11744669_a_at) / RFU DUSP10 (11751237_a_at) / Fold change /veh DUSP10 (11751237_a_at) / RFU ID3 (11757404_x_at) / Fold change /veh ID3 (11757404_x_at) / RFU PLEKHG5 (11737974_s_at) / Fold change /veh PLEKHG5 (11737974_s_at) / RFU LRRC4B (11730491_at) / Fold change /veh LRRC4B (11730491_at) / RFU GIMAP4 (11747438_a_at) / Fold change /veh GIMAP4 (11747438_a_at) / RFU KRT8 (11758183_x_at) / Fold change /veh KRT8 (11758183_x_at) / RFU CNN1 (11734310_a_at) / Fold change /veh CNN1 (11734310_a_at) / RFU VPS37D (11726825_at) / Fold change /veh VPS37D (11726825_at) / RFU C10orf10 (11716522_x_at) / Fold change /veh C10orf10 (11716522_x_at) / RFU KIR2DL2 /// KIR2DL4 /// KIR2DL5A /// KIR2DL5B /// KIR2DS1 /// KIR2DS2 /// KIR2DS3 /// KIR2DS4 /// KIR3DL3 /// KIR3DL3 /// KIR3DS1 (11738374_at) / Fold change /veh KIR2DL2 /// KIR2DL4 /// KIR2DL5A /// KIR2DL5B /// KIR2DS1 /// KIR2DS2 /// KIR2DS3 /// KIR2DS4 /// KIR3DL3 /// KIR3DL3 /// KIR3DS1 (11738374_at) / RFU C1QL1 (11718748_at) / Fold change /veh C1QL1 (11718748_at) / RFU TMPRSS4 (11747572_a_at) / Fold change /veh TMPRSS4 (11747572_a_at) / RFU HAMP (11756126_x_at) / Fold change /veh HAMP (11756126_x_at) / RFU RNFT2 (11725882_a_at) / Fold change /veh RNFT2 (11725882_a_at) / RFU NR4A2 (11747474_a_at) / Fold change /veh NR4A2 (11747474_a_at) / RFU ABCC12 (11746883_a_at) / Fold change /veh ABCC12 (11746883_a_at) / RFU TMEM136 (11760407_x_at) / Fold change /veh TMEM136 (11760407_x_at) / RFU CLDN22 /// WWC2 (11732394_at) / Fold change /veh CLDN22 /// WWC2 (11732394_at) / RFU HLA-DPB1 (11760878_x_at) / Fold change /veh HLA-DPB1 (11760878_x_at) / RFU SPINT1 (11716480_a_at) / Fold change /veh SPINT1 (11716480_a_at) / RFU GAP43 (11754022_s_at) / Fold change /veh GAP43 (11754022_s_at) / RFU A4GNT (11735810_at) / Fold change /veh A4GNT (11735810_at) / RFU PRB3 (11715151_x_at) / Fold change /veh PRB3 (11715151_x_at) / RFU TUBB4B (11761932_at) / Fold change /veh TUBB4B (11761932_at) / RFU CAPN14 (11732068_a_at) / Fold change /veh CAPN14 (11732068_a_at) / RFU TMCC2 (11721928_a_at) / Fold change /veh TMCC2 (11721928_a_at) / RFU IRGQ (11745062_a_at) / Fold change /veh IRGQ (11745062_a_at) / RFU FAM174B (11720279_a_at) / Fold change /veh FAM174B (11720279_a_at) / RFU TMPRSS4 (11748680_a_at) / Fold change /veh TMPRSS4 (11748680_a_at) / RFU FAM212B (11763350_a_at) / Fold change /veh FAM212B (11763350_a_at) / RFU PLEKHG5 (11743358_a_at) / Fold change /veh PLEKHG5 (11743358_a_at) / RFU ZSCAN30 (11745921_a_at) / Fold change /veh ZSCAN30 (11745921_a_at) / RFU CMKLR1 (11741424_a_at) / Fold change /veh CMKLR1 (11741424_a_at) / RFU LOC101060620 /// MAPK8IP1 (11723275_at) / Fold change /veh LOC101060620 /// MAPK8IP1 (11723275_at) / RFU SPTSSB (11747773_x_at) / Fold change /veh SPTSSB (11747773_x_at) / RFU PRSS12 (11739890_at) / Fold change /veh PRSS12 (11739890_at) / RFU BIN1 (11741810_x_at) / Fold change /veh BIN1 (11741810_x_at) / RFU WNT11 (11732464_a_at) / Fold change /veh WNT11 (11732464_a_at) / RFU C10orf10 (11716521_a_at) / Fold change /veh C10orf10 (11716521_a_at) / RFU C5orf56 (11738089_at) / Fold change /veh C5orf56 (11738089_at) / RFU CYB561 (11721691_x_at) / Fold change /veh CYB561 (11721691_x_at) / RFU ANKRD19P (11752326_a_at) / Fold change /veh ANKRD19P (11752326_a_at) / RFU OR2T12 /// OR2T33 /// OR2T8 (11738714_s_at) / Fold change /veh OR2T12 /// OR2T33 /// OR2T8 (11738714_s_at) / RFU VCAN (11748164_a_at) / Fold change /veh VCAN (11748164_a_at) / RFU JSRP1 (11732532_at) / Fold change /veh JSRP1 (11732532_at) / RFU KRTAP10-11 (11738290_x_at) / Fold change /veh KRTAP10-11 (11738290_x_at) / RFU MYO3A (11730013_a_at) / Fold change /veh MYO3A (11730013_a_at) / RFU EBF3 (11725865_a_at) / Fold change /veh EBF3 (11725865_a_at) / RFU CAMK2N1 (11719241_x_at) / Fold change /veh CAMK2N1 (11719241_x_at) / RFU C5orf56 (11738088_a_at) / Fold change /veh C5orf56 (11738088_a_at) / RFU OLFML3 (11715873_a_at) / Fold change /veh OLFML3 (11715873_a_at) / RFU LOC100653217 /// NTM (11731650_a_at) / Fold change /veh LOC100653217 /// NTM (11731650_a_at) / RFU MAPK11 (11762145_a_at) / Fold change /veh MAPK11 (11762145_a_at) / RFU FIZ1 (11724087_x_at) / Fold change /veh FIZ1 (11724087_x_at) / RFU OASL (11726364_x_at) / Fold change /veh OASL (11726364_x_at) / RFU SOX15 (11748057_x_at) / Fold change /veh SOX15 (11748057_x_at) / RFU CD79A (11719716_a_at) / Fold change /veh CD79A (11719716_a_at) / RFU HIST1H1D (11736915_at) / Fold change /veh HIST1H1D (11736915_at) / RFU CASKIN2 (11723855_a_at) / Fold change /veh CASKIN2 (11723855_a_at) / RFU LOC730098 (11760151_x_at) / Fold change /veh LOC730098 (11760151_x_at) / RFU OR4N2 (11742367_at) / Fold change /veh OR4N2 (11742367_at) / RFU PRRT2 (11749266_a_at) / Fold change /veh PRRT2 (11749266_a_at) / RFU SNX32 (11753110_a_at) / Fold change /veh SNX32 (11753110_a_at) / RFU CDHR5 (11726645_a_at) / Fold change /veh CDHR5 (11726645_a_at) / RFU RCAN1 (11760418_a_at) / Fold change /veh RCAN1 (11760418_a_at) / RFU FAM167A (11723789_a_at) / Fold change /veh FAM167A (11723789_a_at) / RFU FAM26E (11764081_at) / Fold change /veh FAM26E (11764081_at) / RFU ISYNA1 (11749810_s_at) / Fold change /veh ISYNA1 (11749810_s_at) / RFU ACY1 (11761880_at) / Fold change /veh ACY1 (11761880_at) / RFU 11764098_at / Fold change /veh 11764098_at / RFU SAMD14 (11745864_x_at) / Fold change /veh SAMD14 (11745864_x_at) / RFU NPB (11741838_a_at) / Fold change /veh NPB (11741838_a_at) / RFU TMPRSS6 (11731388_a_at) / Fold change /veh TMPRSS6 (11731388_a_at) / RFU KRTAP10-2 (11738614_at) / Fold change /veh KRTAP10-2 (11738614_at) / RFU ARHGAP8 /// PRR5-ARHGAP8 (11727945_x_at) / Fold change /veh ARHGAP8 /// PRR5-ARHGAP8 (11727945_x_at) / RFU KRTAP5-7 /// NADSYN1 (11734609_at) / Fold change /veh KRTAP5-7 /// NADSYN1 (11734609_at) / RFU RASL12 (11751679_a_at) / Fold change /veh RASL12 (11751679_a_at) / RFU CDKN2B (11736163_a_at) / Fold change /veh CDKN2B (11736163_a_at) / RFU PRF1 (11729649_at) / Fold change /veh PRF1 (11729649_at) / RFU, ZNF638 /// ZNF638-IT1 / Fold change vs veh, ZNF638 /// ZNF638-IT1 / RFU, PANK3 / Fold change vs veh, PANK3 / RFU, SH3YL1 / Fold change vs veh, SH3YL1 / RFU, ZEB2 / Fold change vs veh, ZEB2 / RFU, NRIP1 / Fold change vs veh, NRIP1 / RFU, PTTG1IP / Fold change vs veh, PTTG1IP / RFU, CAPN2 / Fold change vs veh, CAPN2 / RFU, MED14 / Fold change vs veh, MED14 / RFU, SNORA58 / Fold change vs veh, SNORA58 / RFU, C1orf63 / Fold change vs veh, C1orf63 / RFU, LRRFIP1 / Fold change vs veh, LRRFIP1 / RFU, NDUFAF7 / Fold change vs veh, NDUFAF7 / RFU, SLC12A2 / Fold change vs veh, SLC12A2 / RFU, IBTK / Fold change vs veh, IBTK / RFU, ESF1 / Fold change vs veh, ESF1 / Fold change vs veh, TMEM50B / RFU, TAOK1 / Fold change vs veh, TAOK1 / RFU, ACBD3 / Fold change vs veh, ACBD3 / RFU, TMA16 / Fold change vs veh, TMA16 / RFU, RWDD3 / Fold change vs veh, RWDD3 / RFU, BCAT1 / Fold change vs veh, BCAT1 / RFU, EDEM3 / Fold change vs veh, EDEM3 / RFU, TMEM33 / Fold change vs veh, TMEM33 / RFU, WDR75 / Fold change vs veh, WDR75 / RFU, AHCTF1 / Fold change vs veh, AHCTF1 / RFU, TFRC / Fold change vs veh, TFRC / RFU, ZDHHC17 / Fold change vs veh, ZDHHC17 / RFU, NOM1 / Fold change vs veh, NOM1 / RFU, ARL8B / Fold change vs veh, ARL8B / RFU, ZBTB11 / Fold change vs veh, ZBTB11 / RFU, TAMM41 / Fold change vs veh, TAMM41 / RFU, KIAA1704 /// LOC100996395 / Fold change vs veh, KIAA1704 /// LOC100996395 / RFU, ING1 / Fold change vs veh, ING1 / RFU, TRMT61B / Fold change vs veh, TRMT61B / RFU, FUBP3 / Fold change vs veh, FUBP3 / RFU, TP53 / Fold change vs veh, TP53 / RFU, TNKS2 / Fold change vs veh, TNKS2 / RFU, ZFP14 / Fold change vs veh, ZFP14 / RFU, ACTR2 / Fold change vs veh, ACTR2 / RFU, PPP3R1 / Fold change vs veh, PPP3R1 / RFU, PIK3R1 / Fold change vs veh, PIK3R1 / RFU, HNRNPA1 / Fold change vs veh, HNRNPA1 / RFU, RNF170 / Fold change vs veh, RNF170 / RFU, ZNF28 / Fold change vs veh, ZNF28 / RFU, RNGTT / Fold change vs veh, RNGTT / RFU, OGT / Fold change vs veh, OGT / RFU, BRD1 / Fold change vs veh, BRD1 / RFU, MARS / Fold change vs veh, MARS / RFU, ZNF655 / Fold change vs veh, ZNF655 / RFU, FAHD1 / Fold change vs veh, FAHD1 / RFU, BDP1 / Fold change vs veh, BDP1 / RFU, LRRCC1 / Fold change vs veh, LRRCC1 / RFU, ARID1A / Fold change vs veh, ARID1A / RFU, ZNF146 / Fold change vs veh, ZNF146 / RFU, ZNF330 / Fold change vs veh, ZNF330 / RFU, GPN3 / Fold change vs veh, GPN3 / RFU, C9orf123 / Fold change vs veh, C9orf123 / RFU, N4BP2L2 / Fold change vs veh, N4BP2L2 / RFU, ARFIP1 / Fold change vs veh, ARFIP1 / RFU, FAM179B / Fold change vs veh, FAM179B / RFU, BCL10 / Fold change vs veh, BCL10 / RFU, UHRF1BP1L / Fold change vs veh, UHRF1BP1L / RFU, BET1 / Fold change vs veh, BET1 / RFU, CNOT2 / Fold change vs veh, CNOT2 / RFU, ZNF268 / Fold change vs veh, ZNF268 / Fold change vs veh, ZNF507 / RFU, DGCR2 / Fold change vs veh, DGCR2 / RFU, WDSUB1 / Fold change vs veh, WDSUB1 / Fold change vs veh, HSP90B1 /// MIR3652 / RFU, ADSS / Fold change vs veh, ADSS / RFU, GK / Fold change vs veh, GK / RFU, ZNF148 / Fold change vs veh, ZNF148 / RFU, TAF9 / Fold change vs veh, TAF9 / RFU, SLC1A5 / Fold change vs veh, SLC1A5 / RFU, SLMO2 / Fold change vs veh, SLMO2 / RFU, ABCC4 / Fold change vs veh, ABCC4 / RFU, LOC101060439 /// RAP1B / Fold change vs veh, LOC101060439 /// RAP1B / RFU, RFX7 / Fold change vs veh, RFX7 / RFU, GTPBP10 / Fold change vs veh, GTPBP10 / RFU, CNEP1R1 / Fold change vs veh, CNEP1R1 / RFU, BIVM-ERCC5 /// ERCC5 / Fold change vs veh, BIVM-ERCC5 /// ERCC5 / RFU, ILF3 / Fold change vs veh, ILF3 / RFU 11762660_at / Fold change /veh 11762660_at / RFU VCAN (11757783_s_at) / Fold change /veh VCAN (11757783_s_at) / RFU DDX43 (11728927_at) / Fold change /veh DDX43 (11728927_at) / RFU KRT8 (11758188_x_at) / Fold change /veh KRT8 (11758188_x_at) / RFU NKD1 (11759106_at) / Fold change /veh NKD1 (11759106_at) / RFU SRD5A1 (11742802_a_at) / Fold change /veh SRD5A1 (11742802_a_at) / RFU TPSAB1 /// TPSB2 (11721975_s_at) / Fold change /veh TPSAB1 /// TPSB2 (11721975_s_at) / RFU GSTM3 (11746129_a_at) / Fold change /veh GSTM3 (11746129_a_at) / RFU IL23R (11737362_x_at) / Fold change /veh IL23R (11737362_x_at) / RFU TMEM51 (11727254_a_at) / Fold change /veh TMEM51 (11727254_a_at) / RFU PIWIL2 (11732686_x_at) / Fold change /veh PIWIL2 (11732686_x_at) / RFU ORM1 (11744905_x_at) / Fold change /veh ORM1 (11744905_x_at) / RFU CCDC152 (11743942_at) / Fold change /veh CCDC152 (11743942_at) / RFU ECM1 (11717891_a_at) / Fold change /veh ECM1 (11717891_a_at) / RFU IL23R (11748794_a_at) / Fold change /veh IL23R (11748794_a_at) / RFU TNFAIP8L3 (11732012_x_at) / Fold change /veh TNFAIP8L3 (11732012_x_at) / RFU MBOAT4 (11741988_at) / Fold change /veh MBOAT4 (11741988_at) / RFU 11764193_at / Fold change /veh 11764193_at / RFU TMEM53 (11763286_at) / Fold change /veh TMEM53 (11763286_at) / RFU MAGEB2 (11727129_at) / Fold change /veh MAGEB2 (11727129_at) / RFU TMEM200A (11744735_a_at) / Fold change /veh TMEM200A (11744735_a_at) / RFU CCDC152 (11751479_a_at) / Fold change /veh CCDC152 (11751479_a_at) / RFU FAM211A (11726209_a_at) / Fold change /veh FAM211A (11726209_a_at) / RFU RGS16 (11746705_a_at) / Fold change /veh RGS16 (11746705_a_at) / RFU VCAN (11755009_s_at) / Fold change /veh VCAN (11755009_s_at) / RFU RHOB (11743442_s_at) / Fold change /veh RHOB (11743442_s_at) / RFU RGS16 (11720943_a_at) / Fold change /veh RGS16 (11720943_a_at) / RFU RGS16 (11720944_at) / Fold change /veh RGS16 (11720944_at) / RFU, VPS4B / Fold change vs veh, VPS4B / RFU, CREB1 / Fold change vs veh, CREB1 / RFU, DNAJC13 / Fold change vs veh, DNAJC13 / RFU, GNAQ / Fold change vs veh, GNAQ / RFU, CDK5R1 / Fold change vs veh, CDK5R1 / RFU, ZRANB3 / Fold change vs veh, ZRANB3 / RFU, CUL4A / Fold change vs veh, CUL4A / RFU, CCNY / Fold change vs veh, CCNY / RFU, UFL1 / Fold change vs veh, UFL1 / RFU, COG3 / Fold change vs veh, COG3 / RFU, DIAPH2 / Fold change vs veh, DIAPH2 / RFU, SKA2 / Fold change vs veh, SKA2 / RFU, AFF3 / Fold change vs veh, AFF3 / RFU, LMF1 / Fold change vs veh, LMF1 / RFU, IPO11 / Fold change vs veh, IPO11 / RFU, DFFB / Fold change vs veh, DFFB / RFU, FOXP1 / Fold change vs veh, FOXP1 / RFU, CARD8 / Fold change vs veh, CARD8 / RFU, STRN3 / Fold change vs veh, STRN3 / RFU, ADK / Fold change vs veh, ADK / RFU, RASSF2 / Fold change vs veh, RASSF2 / RFU, WIPF1 / Fold change vs veh, WIPF1 / RFU, LARP1B / Fold change vs veh, LARP1B / RFU, RASA1 / Fold change vs veh, RASA1 / RFU, RB1 / Fold change vs veh, RB1 / RFU, PPFIA1 / Fold change vs veh, PPFIA1 / RFU, MAT2A / Fold change vs veh, MAT2A / RFU, CCT5 / Fold change vs veh, CCT5 / RFU, WDR92 / Fold change vs veh, WDR92 / RFU, CUX1 / Fold change vs veh, CUX1 / RFU, TTC7A / Fold change vs veh, TTC7A / RFU, TMEM135 / Fold change vs veh, TMEM135 / RFU, DEPTOR / Fold change vs veh, DEPTOR / RFU, CPM / Fold change vs veh, CPM / RFU, DNAJB6 / Fold change vs veh, DNAJB6 / RFU, CACNA2D3 / Fold change vs veh, CACNA2D3 / RFU, DTX4 / Fold change vs veh, DTX4 / RFU, TFCP2 / Fold change vs veh, TFCP2 / RFU, GMCL1 /// GMCL1P1 / Fold change vs veh, GMCL1 /// GMCL1P1 / RFU, AEBP2 / Fold change vs veh, AEBP2 / RFU, SNHG1 /// SNORD22 /// SNORD25 /// SNORD26 /// SNORD27 /// SNORD28 /// SNORD29 /// SNORD31 / Fold change vs veh, SNHG1 /// SNORD22 /// SNORD25 /// SNORD26 /// SNORD27 /// SNORD28 /// SNORD29 /// SNORD31 / Fold change (Aza/veh), C12orf56 (ProbeSet 11735607_a_at) / Fold change (ACY-1035/veh), C12orf56 (ProbeSet 11735607_a_at) / Fold change (Aza/veh), FGFR1OP (ProbeSet 11751329_s_at) / Fold change (ACY-1035/veh), FGFR1OP (ProbeSet 11751329_s_at) / Fold change (Aza/veh), VPS36 (ProbeSet 11739960_a_at) / Fold change (ACY-1035/veh), VPS36 (ProbeSet 11739960_a_at) / RFU SYPL1 (11715823_x_at) / Fold change /veh SYPL1 (11715823_x_at) / RFU IGFBP7 (11715501_s_at) / Fold change /veh IGFBP7 (11715501_s_at) / RFU REEP3 (11722064_at) / Fold change /veh REEP3 (11722064_at) / RFU IGLL1 (11728026_x_at) / Fold change /veh IGLL1 (11728026_x_at): dose or concentration left out as unconfirmed. It counts as cell-based, human. Conditions: ProbeSet 11727827_x_at; LIST B.

For the compound `Nc1ccc(-c2cccs2)cc1NC(=O)c1ccc2c(c1)cc(C1CC1)n2CCN1CCOCC1` [ACY-1035], the “Fold change vs veh, NDUFAF7” value stood at 1.01.
